Measured values from patent US20090062309A1, “Therapeutic compositions for the treatment of cardiovascular diseases and methods for use therefor” (priority 2007, published 2009).

Tests used:
[1] = cited from earlier work
[2] = tested on: subjects with CHD having decreased RBC K content; type: in vivo, human
Description: Subjects were evaluated by clinical angina (CCS angina Class II-IV), dyspnea, or arrhythmia.
Exclusion Criteria: Evidence of acute coronary syndrome, AMI, stroke or cardiac arrhythmias; NYHA class III-IV of heart failure, hyperkalemia. Informed consent was obtained in all. Other non CHD causes of chest pain, dyspnea, and arrhythmia had been ruled out.
In addition to that, a single dose of calcium gluconolactate (1 g/daily) was given to all subjects having plasma ionized ICa^2+ ≦1.1 mmol/L, while other Laboratory correction and drug assessment were conducted across the first 3-month period (Table 1) Safety control (ECG, Ion Transport Laboratory, BIA, Non-Invasive Hemodynamic) was obtained at 1, 3 and 6 months and 1 year. Clinical control was obtained weekly in the first month or as needed for physician or patient symptoms; thereafter a 3, 6 and 12 months.
The subjects were taken off any drug that might impair RBC transport, such as digitalis, β-blockers, or NSAID's, in subjects with RBC K^+ ≦90.2 mmol/L cell. Oral calcium gluconolactate (1 g/daily) was administered in all subjects with plasma ionized calcium ≦1.1 mmol/L. Subjects had correction of other plasma electrolyte abnormalities. The subjects were taken off any drug that may affect ventricular repolarization, as digoxin, calcium channel blockers (CCB), diuretics, β-blockers, or the like. […] Anti-aggregants or aspirin in subjects free of angina were discontinued after the 3rd month of treatment.
All subjects underwent: a) Serial ECG for LVH by Cornell or Sokolow-Lyon Criteria (QRS duration times Cornell voltage: R aVL+SV3, with 6 mm [added in women >2440 mm×ms], or Sokolow-Lyon voltage: [SV1+RV5/V6] >38 mm; along with LV strain pattern (classical ST-segment depressed, with inverted T-waves), or LVH voltage criteria with mild LV strain pattern (isoelectric, biphasic or non-symmetrical negative T-waves, without ST-segment depression), and ECG criteria for infarction and/or ischemia (Q-waves from previous AMI, decreased R-wave height, non-progressive R-wave voltages in precordial leads, ST-segment elevation […] often referred as injury current, ST-segment depression ≧[…] often downsloping from the J point, rectification of the ST segment, and isoelectric, biphasic, negative or inverted T-wave), intraventricular conduction disturbance, and arrhythmias); b) Non-invasive hemodynamic study (DP200M) for cardiac parameters (LV Ejection Time (LVET), LV dP/dT (LV delta pressure-time), Cardiac output and index (CO, Cl), Stroke Volume (SV), Pulse Wave Analysis (PWA) of Central Aortic Blood Pressure (BP), Aortic Systolic (SBP), Diastolic (DBP) and mean (m) BP, Aortic augmentation index; inflection point and reflected wave analysis, Systemic Vascular Resistance and Compliance (SVR/SVC), and Brachial Artery Distensibility (BAD), Brachial Artery Compliance (BAC); c) Ion Transport Studies for RBC (K^+, Na^+) plasma (K^+, Na^+, Cl^−, ICa^2+, Mg^2+), and 12-hours night urinary volume (K^+, Na^+, Cl^−, pH), d) Bio-Impedance Analysis (BIA, Quantum X, RJL Systems, MI, USA) for Total body Potassium, Total body water/Extracellular Water, Fat Mass (FM) and Fat-Free Mass (FFM) and e) Echocardiography was obtained at entry, 6 and 12 months periods.

[3] = tested on: subjects with stable chronic angina
Description: A double blind placebo-controlled, randomized trial was conducted in 25 subjects with stable chronic angina. […] All of the subjects were evaluated before and after the double-blind trial, thereby measuring a subject's angina clinical score (CCS Angina Class), ECG, and exercise tolerance as assessed by the Duke Treadmill Score (DTS). Methods for using the DTS with patients in need of coronary intervention and its acceptance as an accurate predictor of cardiac morbidity and mortality in CHD and CAD patients has been well established. See for example Azeem T., et al., Int J. Clin. Pract. (2001), 55(1):10-13. […] Participants' clinical and cardiac parameters were evaluated either monthly, quarterly, half yearly and yearly.

[4] = tested on: cell K uptake by RBC; experiment: long-term assay from our laboratory: cell K uptake by RBC (results not shown)
[5] = 1-month trial, Amiloride 5 mg/d, N=14
[6] = 1-month, Amiloride 5 mg/d, N=14

Cl.NC(N)=NC(=O)c1nc(Cl)c(N)nc1N.O.O [Amiloride, 3,5-diamino-6-chloro-N-(diaminomethylene) pyrazinecarboxamide monohydrochloride, dihydrate]
hyperkalemia as secondary effect ([1]; as disclosed in various medical textbooks): hyperkalemia is a common secondary effect
hyperkalemia ([1]; intravenous doses of Amiloride (1 mg/Kg), subjects with chronic kidney disease, Levy Y. et al. 2008): absence of hyperkalemia
excretion ([1]; upon ingestion, humans): excreted from the kidneys unchanged
RBC K ([2]; 1st month, baseline 84.5±4, p<0.001): 93.5±4 mmol/L cell
cardiovascular events or death ([2]; 2 years of follow-up): 0%
RBC K+ ([2]; 3rd month): remained improved
subjects with improved ST-segment depression or elevation and isoelectric, biphasic or inverted T-wave ([2]; 3rd month, CHD subjects, no nitrates, lower anti-aggregants or aspirin): 74%
LV Strain pattern ([2]; 3rd month, hypertensives): improved or almost reversed
LVH voltage criteria ([2]; 3rd month, hypertensives, p<0.001): significantly decreased
normotensive subjects with marked improved ST-segment depression or elevation and inverted T-waves ([2]; 6th month, 3 out 4): 75%
hypertensives subjects with improved LV Strain pattern ([2]; 6th month, about 4 out of 5): ~80%
ECG-LVH voltage, Sokolow-Lyon criteria ([2]; 6th month, baseline 29.3±5.2, p=0.001): 25.1±3.2 mm
ECG-LVH voltage, Cornell ([2]; 6th month, baseline 2577±509, p<0.02): 2353±254 mm×ms
subjects with previous inferior infarction whose ECGs remained unchanged for Q-waves ([2]; 6th month, these subjects were free of angina): 15%
QTc interval ([2]; human, in vivo): prolonged
hyperkalemia ([2]; human, in vivo): never observed
SVC (Systemic Vascular Compliance) ([2]; hypertensives, 1st month, baseline 0.92±0.16, p<0.003): 1.22±0.21 ml/mmHg
LV dP/dT ([2]; hypertensives, 1st month, baseline 1757±313, p<0.001): 1302±276 mmHg/s
BA Compliance ([2]; hypertensives, 1st month, baseline printed 0.57±0.021, p<0.005): 0.069±0.02 ml/mmHg
angina, single subject FIG. 7B ([2]; normotensive diabetic, after 5 months of Amiloride and calcium treatment): angina reversed
ECG change, single subject FIG. 3C ([2]; normotensive person, bypass surgery, infarction, instable angina, 6-months Amiloride and calcium): reversion of T-wave alterations
angina, single subject FIG. 7A ([2]; person, angina, diabetes, hypertension, after 4 months of Amiloride treatment): the angina reversed
clinical change, single subject FIG. 5B ([2]; person, hypertension, LVH, 3-months Amiloride, antihypertensive and vasodilators drugs): reversion of clinical symptoms of exertional angina, and palpitations
clinical change, single subject FIG. 4B ([2]; person, hypertension, infarction, heart failure, 2 months after addition of Amiloride and calcium gluconolactate): clinical improvement of angina (3 weeks), heart failure and hypertension
angina, single subject FIG. 6B ([2]; person, hypertension, post-infarction angina, Amiloride treatment): rapid reversion of angina (7 days)
ECG T-waves, single subject FIG. 4B ([2]; person, 2 months after addition of Amiloride and calcium gluconolactate): T-waves were improved
ECG T-wave, single subject FIG. 6B ([2]; person, after 5-months of Amiloride treatment): reversion of T-wave inversion
free of angina and symptoms of heart failure ([2]; within 1st month, Amiloride 5 mg/daily (calcium gluconolactate 1 g/daily if plasma ICa2+ ≦1.1 mmol/L), 75 CHD subjects): all subjects were free of angina and symptoms of heart failure
Double-Product [3, 5]: 25700 ± 4633
Peak Exercise BP, diastolic [3, 5]: 94 ± 10
Peak Exercise BP, systolic [3, 5]: 177 ± 19
Peak Exercise HR [3, 5]: 144 ± 19
Exercise Time ([3]; 1-month trial, Amiloride 5 mg/d, N=14, P<0.05 vs placebo): 7.95 ± 2.8 min
High Risk Value: Subjects (%) [3, 6]: 35.7%
Low Risk Value: Subjects (%) [3, 6]: 64.3%
subjects with improved ST-T alterations of ischemia ([3]; 4 weeks, Amiloride 5 mg daily, 9 out of 14): 64%
subjects free of angina ([3]; 4 weeks, Amiloride 5 mg daily, Twelve out of 14 subjects): 71%
adverse episodes of cardiac arrhythmia ([3]; 4 weeks, Amiloride 5 mg daily, exercise treadmill test): without any adverse episodes of cardiac arrhythmia
1-Month DTS (Duke Treadmill Score) ([3]; Amiloride 5 mg/d, N=14, Baseline DTS −2.28 ± 7.0): 7.90 ± 4.2
High Risk Value (DTS), changes from baseline to 1-month ([3]; Amiloride 5 mg/d, high risk subjects): *−3 ± −2.6
Low Risk Value (DTS), changes from baseline to 1-month ([3]; Amiloride 5 mg/d, low risk subjects): *8.6 ± 2.3
hereditable defect in cell K uptake by RBC [4]: reverses a hereditable defect in cell K uptake by RBC
